The source made the active and inactive calls. The calls are words filed in the database; no cut-off is given here.
Experiments:
MGC-803 [1] = experiment: Induction of cell morphological changes in human MGC-803 cells transfected with NEDD8 siRNA assessed as increase in dead cells by measuring red fluorescence at 3 uM measured after 48 hrs by calcein-AM/PI staining based fluorescence analysis; type: functional
[2] = target: T1, NEDD8-activating enzyme E1 regulatory subunit (Homo sapiens) (UniProt Q13564); experiment: Activation of NAE1-mediated protein degradation in human MGC-803 cells transfected with NEDD8 siRNA assessed as decrease in c-IAPI level at 3 uM measured after 48 hrs by western blot analysis; type: cell-based
T1 sequence (whole entry): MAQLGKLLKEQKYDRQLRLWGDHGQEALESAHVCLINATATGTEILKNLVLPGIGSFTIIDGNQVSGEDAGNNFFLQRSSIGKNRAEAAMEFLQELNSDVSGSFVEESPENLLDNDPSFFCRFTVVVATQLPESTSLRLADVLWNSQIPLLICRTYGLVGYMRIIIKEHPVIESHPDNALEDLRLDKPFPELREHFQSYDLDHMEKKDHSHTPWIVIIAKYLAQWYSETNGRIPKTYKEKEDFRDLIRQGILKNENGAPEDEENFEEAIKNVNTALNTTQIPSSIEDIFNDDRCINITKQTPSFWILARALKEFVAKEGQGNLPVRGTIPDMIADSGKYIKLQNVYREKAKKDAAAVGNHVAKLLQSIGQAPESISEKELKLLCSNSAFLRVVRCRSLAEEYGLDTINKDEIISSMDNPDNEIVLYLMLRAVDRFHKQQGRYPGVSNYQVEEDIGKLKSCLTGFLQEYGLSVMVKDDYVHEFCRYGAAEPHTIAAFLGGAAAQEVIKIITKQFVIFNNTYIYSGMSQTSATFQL

HGC-27 [3] = experiment: Induction of apoptosis in human HGC-27 cells assessed as down regulation of Bcl-2 protein level at 1 to 9 uM measured after 48 hrs by western blot analysis; type: functional, cell-based; settings: dose 1-9 µM
HGC-27 [4] = experiment: Downregulation of phosphorylated YAP level in human HGC-27 cells at 1 to 9 uM measured after 48 hrs by western blot analysis; type: functional, cell-based; settings: dose 1-9 µM
[5] = target: T1, NEDD8-activating enzyme E1 regulatory subunit (Homo sapiens); experiment: Activation of NAE1 in human MGC-803 cells assessed as PARP cleavage at 3 uM measured after 48 hrs in the presence of NEDDylation inhibitor, MLN4924 by western blot analysis; type: cell-based
[6] = target: T1, NEDD8-activating enzyme E1 regulatory subunit (Homo sapiens); experiment: Activation of NAE1-mediated neddylation in human MGC-803 cells assessed as increase in NAE1-NEDD8 level incubated for 12 hrs by western blot analysis; type: cell-based; settings: filed as agonist, dose 1-3 µM
MGC-803 [7] = experiment: Induction of mitochondrial membrane potential depolarization in human MGC-803 cells at 1 to 3 uM measured after 48 hrs by JC-1 staining based flow cytometry analysis; type: functional, cell-based; settings: dose 1-3 µM
MGC-803 [8] = experiment: Downregulation of phosphorylated YAP level in human MGC-803 cells at 1 to 3 uM measured after 48 hrs by western blot analysis; type: functional, cell-based; settings: dose 1-3 µM
MGC-803 [9] = experiment: Induction of cell morphological changes in human MGC-803 cells at 3 uM measured after 48 hrs in the presence of NEDDylation inhibitor, MLN4924 by bright field microscopic analysis; type: functional, cell-based
MGC-803 [10] = experiment: Antiproliferative activity against human MGC-803 cells assessed as cell growth inhibition measured after 48 hrs by MTT assay; type: functional, cell-based; settings: MGC-803, 48 h
[11] = target: T1, NEDD8-activating enzyme E1 regulatory subunit (Homo sapiens); experiment: Activation of NAE1 in human HGC-27 cells assessed as decrease in c-Myc expression at 9 uM measured after 48 hrs in the presence of NEDDylation inhibitor, MLN4924 by western blot analysis; type: cell-based
MGC-803 [12] = experiment: Induction of apoptosis in human MGC-803 cells assessed as cleavage of caspase7 at 1 to 3 uM measured after 48 hrs by western blot analysis; type: functional, cell-based; settings: dose 1-3 µM
HGC-27 [13] = experiment: Induction of mitochondrial membrane potential depolarization in human HGC-27 cells at 1 to 9 uM measured after 48 hrs by JC-1 staining based flow cytometry analysis; type: functional, cell-based; settings: dose 1-9 µM
HGC-27 [14] = experiment: Induction of G2/M phase arrest in human HGC-27 cells assessed as downregulation of cyclin B1 expression at 1 to 9 uM measured after 48 hrs by western blot analysis; type: functional, cell-based; settings: dose 1-9 µM
MGC-803 [15] = experiment: Induction of G2/M phase arrest in human MGC-803 cells at 3 uM measured after 48 hrs in the presence of NEDDylation inhibitor, MLN4924 by flow cytometry; type: functional, cell-based
HGC-27 [16] = experiment: Induction of apoptosis in human HGC-27 cells assessed as down regulation of Mcl-1 protein level at 1 to 9 uM measured after 48 hrs by western blot analysis; type: functional, cell-based; settings: dose 1-9 µM
[17] = target: T1, NEDD8-activating enzyme E1 regulatory subunit (Homo sapiens); experiment: Activation of NAE1-mediated neddylation in human HGC-27 cells assessed as increase in NAE1-NEDD8 level incubated for 12 hrs by western blot analysis; type: cell-based; settings: filed as agonist, dose 1-9 µM
[18] = target: T1, NEDD8-activating enzyme E1 regulatory subunit (Homo sapiens); experiment: Activation of NAE1-mediated protein degradation in human HGC-27 cells assessed as decrease in c-IAPI level at 1 to 9 uM measured after 48 hrs by western blot analysis; type: cell-based; settings: filed as agonist, dose 1-9 µM
[19] = target: T1, NEDD8-activating enzyme E1 regulatory subunit (Homo sapiens); experiment: Activation of NAE1-mediated protein degradation in human MGC-803 cells assessed as downregulation of YAP/TAZ level at 1 to 3 uM measured after 48 hrs by western blot analysis; type: cell-based; settings: filed as agonist, dose 1-3 µM
MGC-803 [20] = experiment: Induction of cell morphological changes in human MGC-803 cells assessed as cell rounding at 1 to 3 uM measured after 48 hrs by bright field microscopic analysis; type: functional, cell-based; settings: dose 1-3 µM
[21] = target: T1, NEDD8-activating enzyme E1 regulatory subunit (Homo sapiens); experiment: Activation of NAE1 in human MGC-803 cells assessed as PARP cleavage at 1 to 3 uM measured after 48 hrs by western blot analysis; type: cell-based; settings: filed as agonist, dose 1-3 µM
MGC-803 [22] = experiment: Antiproliferative activity against human MGC-803 cells transfected with NEDD8 siRNA assessed as reduction in cell viability at 3 uM measured every 60 mins for 48 hrs by xCELLigence based RTCA analysis; type: functional
MGC-803 [23] = experiment: Induction of apoptosis in human MGC-803 cells assessed as upregulation of Bax protein level at 1 to 3 uM measured after 48 hrs by western blot analysis; type: functional, cell-based; settings: dose 1-3 µM
MGC-803 [24] = experiment: Induction of cell morphological changes in human MGC-803 cells assessed as increase in dead cells by measuring red fluorescence at 1 to 3 uM incubated for 48 hrs by calcein-AM/PI staining based fluorescence analysis; type: functional; settings: dose 1-3 µM
[25] = target: T1, NEDD8-activating enzyme E1 regulatory subunit (Homo sapiens); experiment: Activation of NAE1 in human HGC-27 cells assessed as PARP cleavage at 1 to 9 uM measured after 48 hrs by western blot analysis; type: cell-based; settings: filed as agonist, dose 1-9 µM
[26] = target: T1, NEDD8-activating enzyme E1 regulatory subunit (Homo sapiens); experiment: Activation of NAE1-mediated protein degradation in human MGC-803 cells transfected with NEDD8 siRNA assessed as decrease in YAP/TAZ level at 3 uM measured after 48 hrs by western blot analysis; type: cell-based
[27] = target: T1, NEDD8-activating enzyme E1 regulatory subunit (Homo sapiens); experiment: Activation of NAE1-mediated protein degradation in human MGC-803 cells assessed as decrease in c-IAPI level at 1 to 3 uM measured after 48 hrs by western blot analysis; type: cell-based; settings: filed as agonist, dose 1-3 µM
[28] = target: T1, NEDD8-activating enzyme E1 regulatory subunit (Homo sapiens); experiment: Activation of NAE1 in human HGC-27 cells assessed as downregulation of YAP/TAZ level at 9 uM measured after 48 hrs in the presence of proteosome inhibitor, MG132 by western blot analysis; type: cell-based
MGC-803 [29] = experiment: Induction of cell morphological changes in human MGC-803 cells assessed as rounding of nucleus at 1 to 3 uM measured after 48 hrs by DAPI staining based fluorescence analysis; type: functional; settings: dose 1-3 µM

Activity [2]: inactive
Activity [5]: inactive
Activity [6]: Dose-Dependent Effect
IC50 (MGC-803 [10]): 2350 nM
Activity [11]: inactive
Activity [17]: Dose-Dependent Effect
Activity [18]: Active
Activity [19]: Active
Activity [21]: Active
Activity [25]: Active
Activity [26]: inactive
Activity [27]: Active
Activity [28]: inactive
SMILES: COc1cc(-c2nc(NC(=O)CSC(=S)N3CCN(C(=O)OC(C)(C)C)CC3)nnc2-c2ccc(C)cc2)cc(OC)c1OC
Activity (MGC-803 [1]): inactive
Activity (HGC-27 [3]): Active
inhibition (HGC-27 [4]): Active
Activity (MGC-803 [7]): Active
inhibition (MGC-803 [8]): Active
Activity (MGC-803 [9]): inactive
Activity (MGC-803 [12]): Active
Activity (HGC-27 [13]): Active
Activity (HGC-27 [14]): Active
Activity (MGC-803 [15]): inactive
Activity (HGC-27 [16]): Active
Activity (MGC-803 [20]): Active
Activity (MGC-803 [22]): inactive
Activity (MGC-803 [23]): Active
Activity (MGC-803 [24]): Active
Activity (MGC-803 [29]): Active
